Experimental data taken from US20240270809A1, “ORAL GLP RECEPTOR AGONISTS” (priority 2020, published 2024).
Positions of bridges follow the written chain, without caps; N, C: chain ends. Non-standard residues stand in square brackets, D forms with d. Residues, ends and D or L forms follow the SMILES beside them. *: point of attachment. Malonyl(2,2-Me2,histaminyl) = CC(C)(C(=O)NCCc1cnc[nH]1)C(=O)*; Ala(1H-tetrazol-5-yl) = N[C@@H](Cc1nnn[nH]1)C(=O)O; αMeL = CC(C)C[C@](C)(N)C(=O)O; Nle = CCCC[C@H](N)C(=O)O; Aib = CC(C)(N)C(=O)O

What was measured:
[1] = Stability of peptides in rat intestinal fluid (ratIF); settings: Sprague Dawley, undiluted rat small intestinal fluid (ratIF)
Protocol: Peptides were tested for in vitro stability in native intestinal fluid obtained from the rat small intestine. Rat Sprague Dawley Small Intestinal Fluid (ratIF) (from Biotrend art. no. RSD-SIF-MI-30ML, undiluted) was preincubated for 15 min at 37° C. and spiked with test and reference item working solutions. Experiments were conducted in duplicate in a non-serial manner. The total incubation volume per replicate was 150 μl. […] All samples and calibration standards (prepared in ratIF) were precipitated by addition of 300 μl precipitant (ACN / 2% acetic acid / 0.2% HFBA, (precipitation regent, PR)) containing internal standards (ISTD) to 150 μl sample. After incubation for 1 h at room temperature all samples were centrifuged for 10 min at 2,200×g (room temperature).

mouse GLP2 receptor = biological target: T1, mouse GLP2 receptor (Mus musculus, UniProt Q5IXF8); experiment: cAMP accumulation assay, functional agonism of mouse GLP2 receptor; assay type: cell-based; settings: HEK cells transiently transfected with mouse GLP2 receptor, HTRF cAMP; for Emax: HEK293, read-out: Mouse GLP-2R agonist cAMP Emax; for EC50: read-out: Mouse GLP-2R agonist cAMP pEC50 (converted)
T1 construct: expressed in transfected cells; host or cells: HEK cells, transient transfection with GeneJuice
T1 sequence (Q5IXF8 1-512): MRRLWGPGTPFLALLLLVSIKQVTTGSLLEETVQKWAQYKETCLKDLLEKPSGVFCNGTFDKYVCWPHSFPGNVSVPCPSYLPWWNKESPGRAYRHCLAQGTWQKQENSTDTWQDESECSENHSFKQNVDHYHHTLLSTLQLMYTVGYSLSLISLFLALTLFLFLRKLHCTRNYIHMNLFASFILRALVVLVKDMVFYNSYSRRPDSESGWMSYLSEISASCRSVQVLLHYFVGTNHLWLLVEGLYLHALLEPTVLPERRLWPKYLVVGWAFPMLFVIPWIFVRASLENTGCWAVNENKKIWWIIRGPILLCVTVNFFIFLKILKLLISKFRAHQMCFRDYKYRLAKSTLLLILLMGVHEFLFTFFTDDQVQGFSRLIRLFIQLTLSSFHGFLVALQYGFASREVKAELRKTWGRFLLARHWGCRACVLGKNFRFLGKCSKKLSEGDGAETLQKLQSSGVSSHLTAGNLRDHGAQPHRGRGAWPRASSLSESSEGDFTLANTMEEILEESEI
Outline: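 pEC50 values come from four-parameter fits of HTRF cAMP signal, read after lysis and 1 h RT incubation. Compounds were incubated 45 min at 37 °C with previously frozen, transiently transfected HEK cells (8000/well) in HBSS containing 0.5 mM IBMX.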

[2] = Stability of peptides in Fasted-State Simulated Intestinal Fluid (FaSSIF); assay type: in vitro ADME; settings: FaSSIF with 10 mg/ml pancreatin, 37° C.; for remaining at 0.5 h: t=30 mins, pH 6.5, 10 mg/ml pancreatin
human GLP1 receptor = biological target: T2, human GLP1 receptor (Homo sapiens, UniProt P43220); experiment: cAMP accumulation assay, functional agonism of human GLP1 receptor; assay type: cell-based; settings: HEK cells infected with human GLP1 receptor BacMam virus, HTRF cAMP; for Emax: HEK293, read-out: Human GLP-1R agonist cAMP Emax; for EC50: read-out: Human GLP-1R agonist cAMP pEC50 (converted)
T2 construct: expressed in transfected cells; host or cells: HEK cells, BacMam virus transduction
T2 sequence (P43220 24-463): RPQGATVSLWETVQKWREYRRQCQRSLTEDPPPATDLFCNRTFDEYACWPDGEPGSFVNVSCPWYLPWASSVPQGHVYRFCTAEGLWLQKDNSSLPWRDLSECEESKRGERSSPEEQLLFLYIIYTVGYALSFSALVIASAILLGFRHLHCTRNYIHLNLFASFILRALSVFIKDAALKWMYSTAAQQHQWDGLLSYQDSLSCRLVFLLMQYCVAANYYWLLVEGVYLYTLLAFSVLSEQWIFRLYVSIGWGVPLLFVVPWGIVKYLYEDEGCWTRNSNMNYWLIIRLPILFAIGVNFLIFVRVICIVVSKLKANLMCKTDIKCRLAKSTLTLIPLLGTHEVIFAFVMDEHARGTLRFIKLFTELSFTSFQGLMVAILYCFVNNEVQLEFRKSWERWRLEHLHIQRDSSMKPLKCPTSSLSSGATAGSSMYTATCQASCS
Outline: (§1)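 cAMP by HTRF in BacMam-transduced HEK cells (24 h infection, frozen stocks); 0.5 mM IBMX in HBSS, 45 min, 37° C.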

human GLP2 receptor = biological target: T3, human GLP2 receptor (Homo sapiens, UniProt O95838); experiment: cAMP accumulation assay, functional agonism of human GLP2 receptor; assay type: cell-based; settings: HEK cells infected with human GLP2 receptor BacMam virus, HTRF cAMP; for Emax: HEK293, read-out: Human GLP-2R agonist cAMP Emax; for EC50: read-out: Human GLP-2R agonist cAMP pEC50 (converted)
T3 construct: expressed in transfected cells; host or cells: HEK cells, BacMam virus transduction
T3 sequence (O95838 1-553): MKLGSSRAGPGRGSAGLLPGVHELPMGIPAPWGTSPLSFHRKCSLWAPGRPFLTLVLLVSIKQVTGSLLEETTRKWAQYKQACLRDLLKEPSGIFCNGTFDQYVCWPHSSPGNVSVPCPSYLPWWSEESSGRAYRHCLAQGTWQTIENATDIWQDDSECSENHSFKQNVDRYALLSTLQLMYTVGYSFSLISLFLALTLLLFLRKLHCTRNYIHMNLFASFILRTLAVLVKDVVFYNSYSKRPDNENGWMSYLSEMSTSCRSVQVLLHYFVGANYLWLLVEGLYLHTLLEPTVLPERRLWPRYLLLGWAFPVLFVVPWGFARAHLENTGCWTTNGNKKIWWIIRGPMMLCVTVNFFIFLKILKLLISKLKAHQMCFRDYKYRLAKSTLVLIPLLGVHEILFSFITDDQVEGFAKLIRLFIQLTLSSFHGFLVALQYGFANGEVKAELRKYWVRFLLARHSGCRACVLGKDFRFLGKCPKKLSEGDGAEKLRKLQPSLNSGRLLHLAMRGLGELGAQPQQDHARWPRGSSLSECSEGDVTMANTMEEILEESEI
Outline: as §1

[3] = Stability of peptides in Fasted-State Simulated Gastric Fluid (FaSSGF); assay type: in vitro ADME; settings: FaSSGF with 0.1 mg/ml pepsin; t=30 mins, 37° C., pH 1.6, 0.1 mg/ml pepsin
Protocol: Stability of peptides was tested in Fasted-State Simulated gastric Fluid (FaSSGF) prepared according to manufacturer's protocol (Biorelevant, art. no. FFF01). […] FaSSGF was pre-incubated for 15 min at 37° C. and spiked with test and reference item working solutions. Experiments were conducted in duplicate in a non-serial manner. The total incubation volume per replicate was 150 μl. […] All samples and calibration standards (prepared in FaSSGF) were precipitated by addition of 300 μl precipitant (ACN / 2% acetic acid / 0.2% HFBA, (precipitation regent, PR)) containing internal standards (ISTD) to 150 μl sample. After incubation for 1 h at room temperature all samples were centrifuged for 10 min at 2,200×g (room temperature).

Structure (SMILES) | remaining at 0.5 h [1] | Emax (mouse GLP2 receptor) | EC50 (mouse GLP2 receptor) | remaining at 0.5 h [2] | Emax (human GLP1 receptor) | EC50 (human GLP1 receptor) | Emax (human GLP2 receptor) | EC50 (human GLP2 receptor) | remaining at 0.5 h [3] | remaining at 0.25 h [1] | remaining at 0.25 h ([2]; FaSSIF pH 6.5 with 10 mg/ml pancreatin, t = 15 mins)
CCCC[C@@H]1NC(=O)[C@H](CCC(=O)O)NC(=O)[C@@H](NC(=O)[C@H](CO)NC(=O)[C@H](Cc2ccccc2)NC(=O)[C@H](CO)NC(=O)[C@@H](C)NC(=O)[C@H](Cc2nn[nH]n2)NC(=O)C(C)(C)C(=O)NCCc2c[nH]cn2)CCCCNC(=O)C[C@@H](C(=O)N[C@H](C(=O)N[C@@H](CC(C)C)C(=O)N[C@@H](CC(=O)O)C(=O)N[C@H]2CCC(=O)NCCCC[C@@H](C(=O)N[C@@H](CC(=O)O)C(=O)N[C@@H](Cc3ccccc3)C(=O)N[C@H](C(=O)N[C@H]3CCCCNC(=O)C[C@@H](C(=O)N[C@H]4CCC(=O)NCCCC[C@@H](C(N)=O)NC(=O)[C@H]([C@@H](C)O)NC(=O)[C@H]([C@@H](C)CC)NC(=O)[C@H](CCCCN)NC4=O)NC(=O)[C@H]([C@@H](C)CC)NC(=O)[C@H](CC(C)C)NC(=O)[C@H](Cc4c[nH]c5ccccc45)NC3=O)[C@@H](C)CC)NC(=O)[C@H](C)NC(=O)[C@H](C)NC(=O)[C@H](CCCCN)NC2=O)[C@@H](C)CC)NC(=O)[C@@H](Cc2ccccc2)NC1=O [Example 40] ({Malonyl(2,2-Me2,histaminyl)}-[Ala(1H-tetrazol-5-yl)][dA]SFSKE[Nle][dF]DILDEKAAKDFIKWLIDEKITK-NH2; lactam 6-10, 14-18, 22-26, 27-31 (inferred); C-terminus assumed) | 14.7% | 99.6% | 1.26 nM | 68.7% | 89.9% | 0.501 nM | 105% | 0.00631 nM | 84.9% |  | 
CC[C@H](C)[C@H](NC(=O)[C@H](Cc1ccccc1)NC(=O)[C@H](CC(=O)O)NC(=O)[C@H](CCCNC(=N)N)NC(=O)[C@H](C)NC(=O)[C@H](C)NC(=O)[C@H](CC(C)C)NC(=O)[C@H](CC(N)=O)NC(=O)[C@H](CC(=O)O)NC(=O)[C@H](CC(C)C)NC(=O)[C@@H](NC(=O)[C@@H](NC(=O)[C@H](CC(N)=O)NC(=O)[C@H](CCSC)NC(=O)[C@H](CCC(=O)O)NC(=O)[C@H](CC(=O)O)NC(=O)[C@H](CO)NC(=O)[C@H](Cc1ccccc1)NC(=O)[C@H](CO)NC(=O)CNC(=O)[C@H](CC(=O)O)NC(=O)CNC(=O)[C@@H](N)Cc1c[nH]cn1)[C@@H](C)O)[C@@H](C)CC)C(=O)N[C@@H](CC(N)=O)C(=O)N[C@@H](Cc1c[nH]c2ccccc12)C(=O)N[C@@H](CC(C)C)C(=O)N[C@H](C(=O)N[C@@H](CCC(N)=O)C(=O)N[C@H](C(=O)N[C@@H](CCCCN)C(=O)N[C@H](C(=O)N[C@H](C(=O)N[C@@H](CC(=O)O)C(=O)O)[C@@H](C)O)[C@@H](C)CC)[C@@H](C)O)[C@@H](C)CC [Teduglutide, reference compound] | 1.3% |  |  | 1.7% |  |  |  |  | 9.2% | 5.7% | 1.2%
CCCC[C@H](NC(=O)[C@H](CCC(=O)O)NC(=O)[C@@H]1CC(=O)NCCCC[C@H](NC(=O)[C@H](CC(=O)O)NC(=O)C(C)(C)NC(=O)[C@@H](N)Cc2c[nH]cn2)C(=O)N[C@@H](CO)C(=O)N[C@@H](Cc2ccccc2)C(=O)N[C@@H](CO)C(=O)N1)C(=O)N[C@H](Cc1ccccc1)C(=O)N[C@H](C(=O)N[C@@](C)(CC(C)C)C(=O)N[C@@H](CC(C)C)C(=O)N[C@@H](CC(=O)O)C(=O)N[C@H]1CCC(=O)NCCCC[C@@H](C(=O)N[C@@H](CC(=O)O)C(=O)N[C@@H](Cc2ccccc2)C(=O)N[C@H](C(=O)N[C@H]2CCC(=O)NCCCC[C@@H](C(=O)N[C@H](C(=O)N[C@@H](CCCCN)C(=O)N3CCC[C@H]3C(N)=O)[C@@H](C)O)NC(=O)[C@H]([C@@H](C)CC)NC(=O)[C@H](CC(C)C)NC(=O)[C@H](Cc3c[nH]c4ccccc34)NC2=O)[C@@H](C)CC)NC(=O)[C@H](C)NC(=O)[C@H](C)NC(=O)[C@H](CCCCN)NC1=O)[C@@H](C)O [Example 30] (H-H[Aib]DKSFSDE[Nle][dF]T[αMeL]LDEKAAKDFIEWLIKTKP-NH2; lactam 4-8, 16-20, 24-28; N-terminus and C-terminus assumed) |  | 101% |  | 51.1% | 96.7% |  | 104% |  | 100% |  | 
CCCC[C@H](NC(=O)[C@H](CCC(=O)O)NC(=O)[C@@H]1CC(=O)NCCCC[C@H](NC(=O)[C@H](CC(=O)O)NC(=O)C(C)(C)NC(=O)[C@@H](N)Cc2c[nH]cn2)C(=O)N[C@@H](CO)C(=O)N[C@@H](Cc2ccccc2)C(=O)N[C@@H](CO)C(=O)N1)C(=O)N[C@H](Cc1ccccc1)C(=O)N[C@H](C(=O)N[C@@](C)(CC(C)C)C(=O)N[C@@H](CC(C)C)C(=O)N[C@@H](CC(=O)O)C(=O)N[C@H]1CCC(=O)NCCCC[C@@H](C(=O)N[C@@H](CC(=O)O)C(=O)N[C@@H](Cc2ccccc2)C(=O)N[C@H](C(=O)N[C@H]2CCC(=O)NCCCC[C@@H](C(=O)N[C@H]3CCC(=O)NCCCC[C@@H](C(N)=O)NC(=O)[C@H]([C@@H](C)O)NC(=O)[C@H]([C@@H](C)CC)NC(=O)[C@H](CCCCN)NC3=O)NC(=O)[C@H]([C@@H](C)CC)NC(=O)[C@H](CC(C)C)NC(=O)[C@H](Cc3c[nH]c4ccccc34)NC2=O)[C@@H](C)CC)NC(=O)[C@H](C)NC(=O)[C@H](C)NC(=O)[C@H](CCCCN)NC1=O)[C@@H](C)O [Example 46] (H-H[Aib]DKSFSDE[Nle][dF]T[αMeL]LDEKAAKDFIEWLIKEKITK-NH2; lactam 4-8, 16-20, 24-28, 29-33 (inferred); C-terminus assumed) |  | 101% | 10 nM | 95.3% | 97.8% | 0.126 nM | 105% | 0.0251 nM | 100% |  | 
CCCC[C@H](NC(=O)[C@H](CCC(=O)O)NC(=O)[C@@H]1CC(=O)NCCCC[C@H](NC(=O)[C@H](Cc2nn[nH]n2)NC(=O)C(C)(C)C(=O)NCCc2c[nH]cn2)C(=O)N[C@@H](CO)C(=O)N[C@@H](Cc2ccccc2)C(=O)N[C@@H](CO)C(=O)N1)C(=O)N[C@H](Cc1ccccc1)C(=O)N[C@H](C(=O)N[C@@](C)(CC(C)C)C(=O)N[C@@H](CC(C)C)C(=O)N[C@@H](CC(=O)O)C(=O)N[C@H]1CCC(=O)NCCCC[C@@H](C(=O)N[C@@H](CC(=O)O)C(=O)N[C@@H](Cc2ccccc2)C(=O)N[C@H](C(=O)N[C@H]2CCC(=O)NCCCC[C@@H](C(=O)N[C@H]3CCC(=O)NCCCC[C@@H](C(N)=O)NC(=O)[C@H]([C@@H](C)O)NC(=O)[C@H]([C@@H](C)CC)NC(=O)[C@H](CCCCN)NC3=O)NC(=O)[C@H]([C@@H](C)CC)NC(=O)[C@H](CC(C)C)NC(=O)[C@H](Cc3c[nH]c4ccccc34)NC2=O)[C@@H](C)CC)NC(=O)[C@H](C)NC(=O)[C@H](C)NC(=O)[C@H](CCCCN)NC1=O)[C@@H](C)O [Example 45] ({Malonyl(2,2-Me2,histaminyl)}-[Ala(1H-tetrazol-5-yl)]KSFSDE[Nle][dF]T[αMeL]LDEKAAKDFIEWLIKEKITK-NH2; lactam 2-6, 14-18, 22-26, 27-31 (inferred); C-terminus assumed) | 62.4% |  |  | 95.3% | 96.5% | 0.2 nM | 104% | 0.0501 nM | 100% |  | 
